Measured values taken from the supplement of paper PMC10307832.

Tests used:
Assay in all cases: relative viability (nuclei count vs DMSO), 5 days (fraction); higher = more cells survive
[1] = compound: CN(C)C[C@@H]1CCn2cc(c3ccccc32)C2=C(C(=O)NC2=O)c2cn(c3ccccc23)CCO1 [Ruboxistaurin] + Cc1nc(NC(=O)N2CCC[C@H]2C(N)=O)sc1-c1ccnc(C(C)(C)C(F)(F)F)c1 [Alpelisib] (partner 2 µM)
Method in brief: (§1)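 Nuclei were stained with Hoechst during a one-step fixation (final 0.05% Triton X-100, 1% formaldehyde, 1 ug/ml Hoechst) carried out 5 days after dosing, then counted on 4× images. The cells, lung cancer lines in 1536-well plates, had been dosed by pin tool the day after seeding with one drug alone or a fixed anchor-drug dose plus five library-drug doses (not always all listed) in √10 steps. Relative viability is the nuclei count in treated wells divided by that in vehicle wells, and each value is the median of duplicate plates.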

[2] = compound: CN(C)C[C@@H]1CCn2cc(c3ccccc32)C2=C(C(=O)NC2=O)c2cn(c3ccccc23)CCO1 [Ruboxistaurin] + Cc1nc(Nc2ncc(C(=O)Nc3c(C)cccc3Cl)s2)cc(N2CCN(CCO)CC2)n1 [Dasatinib] (partner 0.075 µM)
Method in brief: as §1

[3] = compound: CN(C)C[C@@H]1CCn2cc(c3ccccc32)C2=C(C(=O)NC2=O)c2cn(c3ccccc23)CCO1 [Ruboxistaurin] + N=C(N)NC(=N)NCCc1ccccc1 [Phenformin] (partner 250 µM)
Method in brief: as §1

[4] = compound: CN(C)C[C@@H]1CCn2cc(c3ccccc32)C2=C(C(=O)NC2=O)c2cn(c3ccccc23)CCO1 [Ruboxistaurin] + CS(=O)(=O)CCNCc1ccc(-c2ccc3ncnc(Nc4ccc(OCc5cccc(F)c5)c(Cl)c4)c3c2)o1 [Lapatinib] (partner 2 µM)
Method in brief: as §1

[5] = compound: CN(C)C[C@@H]1CCn2cc(c3ccccc32)C2=C(C(=O)NC2=O)c2cn(c3ccccc23)CCO1 [Ruboxistaurin] + CS(=O)(=O)N1CCN(Cc2cc3nc(-c4cccc5[nH]ncc45)nc(N4CCOCC4)c3s2)CC1 [Pictilisib] (partner 1 µM)
Method in brief: as §1

| Cell Line | relative viability ([1]; first compound 0.08 µM) | relative viability ([1]; first compound 0.8 µM) | relative viability ([1]; first compound 2.53 µM) | relative viability ([1]; first compound 8 µM) | relative viability ([2]; first compound 0.08 µM) | relative viability ([2]; first compound 0.8 µM) | relative viability ([2]; first compound 2.53 µM) | relative viability ([2]; first compound 8 µM) | relative viability ([3]; first compound 0.08 µM) | relative viability ([3]; first compound 0.8 µM) | relative viability ([3]; first compound 2.53 µM) | relative viability ([3]; first compound 8 µM) | relative viability ([4]; first compound 0.08 µM) | relative viability ([4]; first compound 0.8 µM) | relative viability ([4]; first compound 2.53 µM) | relative viability ([4]; first compound 8 µM) | relative viability ([5]; first compound 0.08 µM) | relative viability ([5]; first compound 0.8 µM) | relative viability ([5]; first compound 2.53 µM) | relative viability ([5]; first compound 8 µM) |
| --- | --- | --- | --- | --- | --- | --- | --- | --- | --- | --- | --- | --- | --- | --- | --- | --- | --- | --- | --- | --- |
| HCC-78 | 0.358 | 0.311 | 0.327 | 0.286 | 0.52 | 0.399 | 0.377 | 0.283 | 0.691 | 0.906 | 0.779 | 0.739 | 0.745 | 0.717 | 0.774 | 0.944 | 0.198 | 0.245 | 0.195 | 0.174 |
| HCC-366 | 0.536 | 0.326 | 0.373 | 0.226 | 0.564 | 0.526 | 0.624 | 0.52 | 0.666 | 0.572 | 0.629 | 0.664 | 1.12 | 0.988 | 1.02 | 1.01 | 0.237 | 0.116 | 0.151 | 0.137 |
| HCC-827 | 1.13 | 1.02 | 0.984 | 0.969 | 0.36 | 0.241 | 0.327 | 0.278 | 0.454 | 0.397 | 0.427 | 0.384 | 0.243 | 0.191 | 0.184 | 0.165 | 0.993 | 0.866 | 1.08 | 1.27 |
| HOP-62 | 0.932 | 1.08 | 0.992 | 1 | 0.746 | 0.628 | 0.634 | 0.673 | 0.681 | 0.65 | 0.704 | 0.839 | 0.995 | 0.978 | 0.997 | 1 | 0.732 | 0.755 | 0.535 | 0.546 |
| IA-LM | 0.971 | 0.663 | 0.747 | 0.612 |  |  |  |  |  |  |  |  | 0.751 |  | 1.07 | 0.789 | 0.389 | 0.271 | 0.381 | 0.323 |
| LC-2-ad | 0.779 | 0.785 | 0.846 | 0.783 | 0.672 | 0.651 | 0.575 | 0.558 | 0.621 | 0.574 | 0.615 | 0.572 | 1.1 | 0.889 | 1.02 | 1.02 | 0.481 | 0.347 | 0.495 | 0.286 |
| LCLC-97TM1 | 0.245 |  | 0.223 | 0.204 | 0.891 | 0.896 | 0.968 | 0.821 | 0.466 | 0.383 | 0.475 | 0.466 | 1.1 |  | 1.6 | 1.05 | 0.221 |  | 0.161 | 0.127 |
| LCLC-103H | 0.99 | 0.802 | 0.826 | 0.862 | 0.641 | 0.386 | 0.482 | 0.389 | 0.336 | 0.285 | 0.336 | 0.321 |  |  |  |  | 0.632 | 0.611 | 0.511 | 0.533 |
| LK-2 | 1.19 | 1.01 | 1 | 0.577 | 0.283 | 0.237 | 0.264 | 0.242 | 0.476 | 0.38 | 0.379 | 0.225 | 1.07 | 0.866 | 0.938 | 0.739 | 0.595 | 0.52 | 0.652 | 0.303 |
| LOU-NH91 | 0.846 | 0.666 | 0.705 | 0.676 | 0.612 | 0.503 | 0.56 | 0.528 | 0.827 | 0.666 | 0.722 | 0.751 | 0.785 | 0.72 | 0.851 | 0.698 | 0.554 | 0.494 | 0.526 | 0.502 |
| LU99A | 0.552 | 0.48 | 0.45 | 0.297 | 0.412 | 0.436 | 0.589 | 0.507 | 0.759 | 0.625 | 0.872 | 0.787 | 1.09 | 0.967 | 0.94 | 0.761 | 0.338 | 0.275 | 0.242 | 0.21 |
| LXF-289 | 1.11 | 0.952 | 0.994 | 1 | 0.243 | 0.206 | 0.273 | 0.22 | 0.514 | 0.509 | 0.488 | 0.594 | 0.914 | 0.88 | 0.886 | 0.864 | 0.815 | 0.718 | 0.736 | 0.647 |
| NCI-H23 | 0.831 | 0.617 | 0.71 | 0.686 | 0.849 | 0.732 | 0.769 | 0.794 | 0.766 | 0.781 | 0.819 | 0.852 | 1.38 | 0.97 | 1.21 | 0.819 | 0.428 | 0.374 | 0.392 | 0.38 |
| NCI-H322M | 0.811 | 0.74 | 0.818 | 0.67 | 0.265 | 0.267 | 0.257 | 0.228 | 0.838 | 0.67 | 0.656 | 0.455 | 0.589 | 0.54 | 0.543 | 0.543 | 0.553 | 0.484 | 0.432 | 0.385 |
| NCI-H441 | 0.653 | 0.717 | 0.845 | 0.498 | 0.538 | 0.525 | 0.494 | 0.577 | 0.942 | 0.886 | 0.867 | 0.862 |  |  |  |  | 0.475 | 0.392 | 0.566 | 0.356 |
| NCI-H522 |  |  |  |  | 0.835 | 0.83 | 0.953 | 0.719 | 0.675 | 0.605 | 0.703 | 0.622 |  |  |  |  |  |  |  |  |
| NCI-H1650 |  |  |  |  | 0.418 | 0.273 | 0.331 | 0.254 | 0.542 | 0.387 | 0.4 | 0.287 | 1.03 | 0.694 | 1.09 | 0.829 | 0.679 | 0.402 | 0.646 | 0.359 |
| NCI-H1703 | 0.356 | 0.323 | 0.366 | 0.308 |  |  |  |  |  |  |  |  | 1.08 | 1.06 | 1.09 | 0.678 | 0.198 |  | 0.277 | 0.23 |
| SW 900 |  |  |  |  | 0.838 | 0.436 | 0.64 | 0.383 | 0.71 | 0.597 | 0.564 | 0.55 |  |  |  |  |  |  |  |  |
